Results from US7446195B2, “High affinity thiophene-based and furan-based kinase ligands” (Schering Corporation, priority 2005, dated 2008).

Biological target: CDK-2 (Homo sapiens, UniProt P24941)
Assay: CDK-2 inhibition (Table 1; fluorescence polarization displacement assay)
Assay type: binding
Details: inhibitory effectiveness toward CDK-2
Procedure: The affinity of lead inhibitors binding to CDK-2 and CDK-2/cyclin A were determined by measuring a Ki value using a fluorescence polarization displacement assay. The deacetylated form of compound BMS-250595 was reacted with Alexa Fluor 647 to generate a compound (BMS-Alexa Fluor647) that bound to both proteins and provided a signal for fluorescence polarization displacement. Binding assays were performed in a 384 well Costar NBS coated plate. A total volume of […] contained concentrations of CDK-2 or CDK-2/cyclin A at […], respectively. The concentration of BMS-Alexa Fluor647 was 50 nM. Serial dilutions of compounds were added to 12 wells. The final buffer concentration was 10 mM Hepes, pH 7.5, 150 mM NaCl, and 1 mM DTT. Samples were incubated at room temperature for 15 minutes and then read in an Analyst HT instrument using an excitation and emission wavelength of 580 and 680 nm, respectively. The […] curve fitting tool described by Zhang et al., 2004 (Zhang R., Mayhood T., Lipari P., Wang Y., Durkin D., Syto R., Gesell J., McNemar C., and Windsor W., Analytical Biochemistry 331 (2004) 138-146)

Compound	IC50 [µM]
COc1ccc(NC(=O)c2ccc(C(=O)Nc3ccc(-c4nnn[nH]4)cc3)s2)c(C)c1 [Compound 178]	≥ 40
CCOc1ccccc1NC(=O)c1ccc(C(=O)Nc2ccc(-n3cncn3)c(F)c2)s1 [Compound 201]	≥ 40
CCCCN(C)C(=O)c1ccc(C(=O)Nc2ccc(-n3cncn3)cc2)s1 [Compound 86]	≥ 40
O=C(Nc1ccc(-n2cncn2)c(F)c1)c1ccc(C(=O)N[C@H]2CC[C@H](O)CC2)o1 [Compound 49]	1 to 40
Cc1cc(CN2CCN(C)CC2)ccc1NC(=O)c1ccc(C(=O)Nc2ccc(-n3cncn3)c(F)c2)s1 [Compound 23]	≤ 1
COc1ccc(NC(=O)c2ccc(C(=O)N3CCC(c4ccncc4)C3)s2)c(C)c1 (stereo not drawn) [Compound 50]	1 to 40
Cc1cc(CN2CCN(C)CC2)ccc1NC(=O)c1ccc(C(=O)Nc2ccc(-n3cncn3)cc2)s1 [Compound 32]	≤ 1
O=C(Nc1ccccc1)c1ccc(C(=O)Nc2ccc(-n3cncn3)cc2)o1 [Compound 45]	1 to 40
O=C(Nc1ccc(-n2cncn2)cc1)c1ccc(C(=O)N[C@@H]2CC3CCC2C3)s1 (stereo partly drawn) [Compound 104]	≥ 40
O=C(Nc1ccc(-n2cncn2)cc1)c1ccc(NC(=O)C2CCCCC2)o1 [Compound 187]	≥ 40
O=C(Nc1ccc(-n2cncn2)c(F)c1)c1ccc(C(=O)NC2CCCCC2)o1 [Compound 27]	≤ 1
O=C(Nc1ccc(-n2cncn2)cc1)c1ccc(C(=O)NC2CCCCC2)o1 [Compound 18]	≤ 1
COc1ccc(NC(=O)c2ccc(C(=O)Nc3ccc(N4CCOCC4)cc3)s2)c(C)c1 [Compound 120]	≥ 40
Cc1cc(CN(C)C)ccc1NC(=O)c1ccc(C(=O)Nc2ccc(-n3cncn3)cc2)s1 [Compound 47]	1 to 40
Cc1cccc(NC(=O)c2ccc(C(=O)Nc3ccc(-n4cncn4)cc3)s2)n1 [Compound 101]	≥ 40
O=C(Nc1ccc(-n2cncn2)cc1)c1ccc(C(=O)NC2CCNCC2)s1 [Compound 139]	≥ 40
O=C(Nc1ccc(-n2cncn2)cc1)c1ccc(C(=O)N2CCc3ccccc3C2)s1 [Compound 74]	1 to 40
Cc1ccnc(NC(=O)c2ccc(C(=O)Nc3ccc(-n4cncn4)cc3)s2)c1 [Compound 100]	≥ 40
Cc1cc(OCCN2CCN(C)CC2)ccc1NC(=O)c1ccc(C(=O)Nc2ccc(-n3cncn3)cc2)s1 [Compound 12]	≤ 1
COc1ccc(NC(=O)c2ccc(C(=O)Nc3ccc4ncccc4c3)s2)c(C)c1 [Compound 169]	≥ 40
Cc1cc(CN2CCOCC2)ccc1NC(=O)c1ccc(C(=O)Nc2ccc(-n3cncn3)c(F)c2)s1 [Compound 20]	≤ 1
CN(Cc1ccco1)C(=O)c1ccc(C(=O)Nc2ccc(-n3cncn3)cc2)s1 [Compound 102]	≥ 40
O=C(Nc1ccc(-n2cncn2)cc1)c1ccc(C(=O)N2CCOCC2)s1 [Compound 85]	≥ 40
COc1cccc(NC(=O)c2ccc(C(=O)Nc3ccc(-n4cncn4)cc3)s2)c1 [Compound 157]	≥ 40
COc1ccc(NC(=O)c2ccc(C(=O)Nc3ccc(-n4cccn4)cc3)s2)c(C)c1 [Compound 129]	≥ 40

Compound	IC50 [µM]
O=C(Nc1ccc(-n2cncn2)cc1)c1ccc(C(=O)NC2CCCC2)s1 [Compound 73]	1 to 40
COc1ccc(C(=O)Nc2ccc(C(=O)N3CCC(Oc4cnccn4)CC3)s2)c(C)c1 [Compound 76]	1 to 40
O=C(Nc1ccc(-n2cncn2)c(F)c1)c1ccc(C(=O)Nc2ccccc2Cl)s1 [Compound 19]	≤ 1
CNCc1ccc(NC(=O)c2ccc(C(=O)Nc3ccc(-n4cncn4)c(F)c3)s2)c(C)c1 [Compound 70]	1 to 40
COc1ccc(C(=O)Nc2ccc(C(=O)N3CCC(c4ccccn4)C3)s2)c(C)c1 (stereo not drawn) [Compound 188]	≥ 40
O=C(NCc1nc2ccccc2[nH]1)c1ccc(C(=O)Nc2ccc(-n3cncn3)cc2)s1 [Compound 158]	≥ 40
CN(C)CCNC(=O)c1ccc(C(=O)Nc2ccc(-n3cncn3)c(F)c2)o1 [Compound 212]	≥ 40
COc1ccc(NC(=O)c2ccc(C(=O)Nc3ccc(N4CCN(C)CC4)cc3)s2)c(C)c1 [Compound 123]	≥ 40
COc1ccc(NC(=O)c2ccc(C(=O)Nc3ccc(CN)cc3)s2)c(C)c1 [Compound 132]	≥ 40
COc1ccc(NC(=O)c2ccc(C(=O)Nc3ccc(-n4cncn4)cc3)o2)cc1 [Compound 35]	≤ 1
COc1ccc(NC(=O)c2ccc(C(=O)Nc3ccc4c(cnn4C)c3)s2)c(C)c1 [Compound 171]	≥ 40
Cc1cc(N2CCOCC2)ccc1NC(=O)c1ccc(C(=O)Nc2ccc(-n3cncn3)c(F)c2)s1 [Compound 6]	≤ 1
O=C(Nc1ccc(-n2cncn2)cc1)c1ccc(C(=O)N2CCCC(c3ccccc3)C2)s1 (stereo not drawn) [Compound 116]	≥ 40
O=C(Nc1ccc(Cl)cc1)c1ccc(C(=O)Nc2ccc(-n3cncn3)cc2)s1 [Compound 53]	1 to 40
O=C(Nc1ccc(-n2cncn2)c(F)c1)c1ccc(C(=O)Nc2ccccc2F)s1 [Compound 37]	≤ 1
CN1CCC(NC(=O)c2ccc(C(=O)Nc3ccc(-n4cncn4)cc3)s2)CC1 [Compound 141]	≥ 40
COc1cccc(C2CCN(C(=O)c3ccc(C(=O)Nc4ccc(-n5cncn5)cc4)s3)C2)c1 (stereo not drawn) [Compound 119]	≥ 40
Cc1cc(OCCO)ccc1NC(=O)c1ccc(C(=O)Nc2ccc(-n3cncn3)cc2)s1 [Compound 4]	≤ 1
O=C(Nc1ccc(-n2cncn2)cc1)c1ccc(C(=O)Nc2nccs2)s1 [Compound 92]	≥ 40
O=C(Nc1ccc(-n2cncn2)cc1)c1ccc(C(=O)Nc2cc(-c3ccco3)n[nH]2)s1 [Compound 197]	≥ 40
O=C(Nc1ccc(C(=O)Nc2ccc(-n3cncn3)cc2)s1)c1ccccc1 [Compound 40]	≤ 1
CN(C)C(=O)c1ccc(C(=O)Nc2ccc(-n3cncn3)c(F)c2)o1 [Compound 216]	≥ 40
CC(CN(C)C)NC(=O)c1ccc(C(=O)Nc2ccc(-n3cncn3)cc2)s1 (stereo not drawn) [Compound 95]	≥ 40
O=C(Nc1ccc(-n2cncn2)cc1)c1ccc(C(=O)N[C@H]2CCc3ccccc32)s1 [Compound 56]	1 to 40
Nc1ccc(CNC(=O)c2ccc(C(=O)Nc3ccc(-n4cncn4)cc3)s2)cn1 [Compound 164]	≥ 40

Compound	IC50 [µM]
O=C(NCCN1CCNC1=O)c1ccc(C(=O)Nc2ccc(-n3cncn3)cc2)s1 [Compound 146]	≥ 40
CN(C(=O)c1ccc(C(=O)Nc2ccc(-n3cncn3)cc2)s1)C1CCCCC1 [Compound 39]	≤ 1
COc1ccc(NC(=O)c2ccc(C(=O)Nc3ccc4scnc4c3)s2)c(C)c1 [Compound 173]	≥ 40
O=C(Nc1ccc(C(=O)Nc2ccc(-n3cncn3)cc2)o1)c1ccccc1 [Compound 183]	≥ 40
Cc1cc(Cn2ccnc2)ccc1NC(=O)c1ccc(C(=O)Nc2ccc(-n3cncn3)cc2)s1 [Compound 9]	≤ 1
C[C@H](NC(=O)c1ccc(C(=O)Nc2ccc(-n3cncn3)c(F)c2)o1)C1CCCCC1 [Compound 28]	≤ 1
O=C(Nc1ccc(-n2cncn2)cc1)c1ccc(C(=O)N2CCCCC2)s1 [Compound 84]	≥ 40
COc1ccc(NC(=O)c2ccc(C(=O)Nc3ccc4c(c3)OCO4)s2)c(C)c1 [Compound 130]	≥ 40
COc1ccc(NC(=O)c2ccc(C(=O)Nc3ccc(-n4cncn4)cc3)s2)cc1Cl [Compound 61]	1 to 40
O=C(Nc1ccc(-n2cncn2)c(F)c1)c1ccc(C(=O)Nc2ccccc2Oc2cccnc2)s1 [Compound 205]	≥ 40
COc1ccccc1NC(=O)c1ccc(C(=O)Nc2ccc(-n3cncn3)c(F)c2)s1 [Compound 206]	≥ 40
O=C(Nc1ccc(-n2cncn2)cc1)c1ccc(C(=O)NC2CCCCC2)s1 [Compound 91]	≥ 40
CC(C)[C@@H](CO)NC(=O)c1ccc(C(=O)Nc2ccc(-n3cncn3)cc2)s1 [Compound 153]	≥ 40
COc1ccc(NC(=O)c2ccc(C(=O)N3CCC(c4ccccn4)C3)s2)c(C)c1 (stereo not drawn) [Compound 71]	1 to 40
COc1ccc(NC(=O)c2ccc(C(=O)Nc3ccc(-c4c(C)noc4C)cc3)s2)c(C)c1 [Compound 168]	≥ 40
O=C(NC[C@H]1CCCO1)c1ccc(C(=O)Nc2ccc(-n3cncn3)cc2)s1 [Compound 93]	≥ 40
Cc1cc(NC(=O)c2ccc(C(=O)Nc3ccc(-n4cncn4)cc3)s2)n(C)n1 [Compound 67]	1 to 40
COc1ccc(C(=O)Nc2ccc(C(=O)Nc3ccc(-n4cncn4)cc3)s2)c(C)c1 [Compound 2]	≤ 1
CN1CCC(N(C)C(=O)c2ccc(C(=O)Nc3ccc(-n4cncn4)c(F)c3)o2)CC1 [Compound 210]	≥ 40
O=C(Nc1ccc(-n2cncn2)cc1)c1ccc(C(=O)N2CCCC2c2cccnc2)s1 (stereo not drawn) [Compound 150]	≥ 40
CC(C)NC(=O)c1ccc(C(=O)Nc2ccc(-n3cncn3)cc2)s1 [Compound 81]	≥ 40
O=C(NCCc1ccccc1)c1ccc(C(=O)Nc2ccc(-n3cncn3)cc2)s1 [Compound 108]	≥ 40
CN(Cc1ccccc1)C(=O)c1ccc(C(=O)Nc2ccc(-n3cncn3)cc2)s1 [Compound 107]	≥ 40
Cc1cc(N2CCN(C)CC2)ccc1NC(=O)c1ccc(C(=O)Nc2ccc(-n3cncn3)cc2)s1 [Compound 29]	≤ 1
Cc1cc(CN(C)C)ccc1NC(=O)c1ccc(C(=O)Nc2ccc(-n3cncn3)c(F)c2)s1 [Compound 48]	1 to 40
